We go through one substance from patent US20150337010A1, “Method for treating or preventing liver related diseases” (Tunghai University, priority 2014, published 2015).

What all share (type): in vivo, C57BL/6 male mice
For one test, the system named is Bax. The test is described as follows: Western blotting of liver protein extract: Bax. The following applies: high-fat diet mice, groups 3~5 (5, 15, 25 mg/kg/day i.p.), normalized with tubulin, compared with group 2. As to the method:
(§1) The experiments using the experimental mice were conducted according to the IACUC-100-12 protocol approved by Academia Sinica Institutional Animal Care and Utilization Committee (IACUC) ethics committee. All C57BL/6 male mice (6-weeks-old) were randomly divided into 5 groups that contain 8 mice in each. These mice were individually housed in a room temperature at 24±2° C. and 55±10% humidity with 12 hours of light cycle. Herein, the control mice in the group 1 were fed with standard laboratory diet and administrated 0.9% normal saline by intra-peritoneal injection. […]
(§2) Protein concentration of extract was determined by Lowry's protein assay method, first. […]
(§3) The protein extract of the mouse liver of the each group was prepared in example 4 and then to determine the expressions of apoptosis and survive related proteins using western blotting of example 5. The expression pattern of the apoptosis and survive related proteins were shown in FIG. 7 to FIG. 12, wherein the expression of tubulin was utilized as the internal control in western blot analysis in FIG. 7, FIG. 9 and FIG. 11, and the relative expression levels of the apoptosis and survive related proteins in mouse liver were normalized with tubulin for quantification in FIG. 8, FIG. 10 and FIG. 12. […]

The subject of a further test is cytochrome c. Briefly: Western blotting of liver protein extract: cytochrome c. The following applies: high-fat diet mice, groups 3~5 (5, 15, 25 mg/kg/day i.p.), normalized with tubulin, compared with group 2. As to the method:
as §1, §2, §3
Background: A western blot detects proteins with antibodies after separation by electrophoresis.

The next test concerns AKT. Briefly: Western blotting of liver protein extract: AKT. The following applies: high-fat diet mice, groups 3~5 (5, 15, 25 mg/kg/day i.p.), normalized with tubulin, compared with group 2. As to the method: as §1, §2, §3
Test [1] can be described thus: LDL-cholesterol and triglyceride in blood plasma of high-fat diet fed mice. The conditions noted are these: high-fat diet mice, 5, 15 or 25 mg/kg/day intra-peritoneal (groups 3~5), compared with group 2 (high-fat diet, saline). As to the method: as §1, with “injection. In the group 2, the mice were fed with high-fat diet to induce the fatty liver, and administrated 0.9% normal saline by intra-peritoneal injection. In the group 3, the mice were fed with high-fat diet and administrated with peptide of SEQ ID No.1 by intra-peritoneal injected with the dose of 5 mg/kg/day. In the group 4, the mice were fed with high-fat diet and administrated with peptide of SEQ ID No.1 by intra-peritoneal injected with the dose of 15 mg/kg/day.” for “injection.”
The blood samples collected from the mice in each group indicated in example 1 into the microcentrifuge tubes containing heparin (10 μL, 1000 IU/ml). […] The concentration of low density lipoprotein-cholesterol (hereafter referred to as LDL) and triglyceride in the isolated blood plasma from the mice in the each group were determined by using the commercial detection kit.

For test [2], the system named is matrix metalloproteinase-9. Briefly: Western blotting of liver protein extract: MMP-9 (hepatic fibrosis biomarker). The following applies: high-fat diet mice, groups 3~5 (5, 15, 25 mg/kg/day i.p.), normalized with tubulin, compared with group 2. As to the method:
as §1, with “injection. In the group 2, the mice were fed with high-fat diet to induce the fatty liver, and administrated 0.9% normal saline by intra-peritoneal injection.” for “injection.”
as §2
According to method in example 5, protein extract of mouse liver in the each group prepared in example 4 was subjected to determine the expression pattern and relative level of matrix metalloproteinase-9 (hereafter referred to as MMP 9). The results were shown in FIG. 13 and FIG. 14, wherein in FIG. 13, the expression of tubulin was utilized as the internal control in the western blotting and in FIG. 14, the quantified expression level of MMP-9 in the mouse liver of the each group was calculated with normalized with quantified expression level of tubulin.

Another test concerns PI3K. The test is described as follows: Western blotting of liver protein extract: PI3K. The conditions noted are these: high-fat diet mice, groups 3~5 (5, 15, 25 mg/kg/day i.p.), normalized with tubulin, compared with group 2. As to the method: as §1, §2, §3
Another test relates to TNFα. Briefly: Western blotting of liver protein extract: TNFα. The conditions noted are these: high-fat diet mice, groups 3~5 (5, 15, 25 mg/kg/day i.p.), normalized with tubulin, compared to group 2. As to the method:
as §1, with “injection. In the group 2, the mice were fed with high-fat diet to induce the fatty liver, and administrated 0.9% normal saline by intra-peritoneal injection.” for “injection.”
as §2
(§4) According to the methods in example 4 and 5, preparing the protein extract of mouse liver in the each group and then the expression pattern of TNFα and IL-6 in mouse liver of the each group was determined by western blotting. The results were shown in FIG. 5 and FIG. 6, wherein the expression of tubulin was utilized as internal control in FIG. 5 and FIG. 6 and the relative amount of TNFα and IL-6 in mouse liver of the each group were separately quantified and normalization with the internal control.

A further test concerns Caspase-9. The test is described as follows: Western blotting of liver protein extract: Caspase-9. The following applies: high-fat diet mice, groups 3~5 (5, 15, 25 mg/kg/day i.p.), normalized with tubulin, compared with group 2. As to the method:
as §1, §2, §3

In a further test the test system is Caspase-3. Briefly: Western blotting of liver protein extract: Caspase-3. The conditions noted are these: high-fat diet mice, groups 3~5 (5, 15, 25 mg/kg/day i.p.), normalized with tubulin, compared with group 2. As to the method: as §1, §2, §3
Another test concerns PPARα. The test is described as follows: Western blotting of liver protein extract: PPARα. The conditions noted are these: high-fat diet mice, groups 3~5 (5, 15, 25 mg/kg/day i.p.), normalized with tubulin, compared with group 2. As to the method:
as §1, with “injection. In the group 2, the mice were fed with high-fat diet to induce the fatty liver, and administrated 0.9% normal saline by intra-peritoneal injection.” for “injection.”
as §2
According to method in example 5, protein extract of mouse liver in each group prepared in example 4 was subjected to determine the expression pattern and relative level of PPARα. The results were shown in FIG. 15 and FIG. 16, wherein the expression of tubulin was utilized as the internal control in FIG. 15 and the quantified expression level of PPARα in the mouse livers of the each group was calculated with normalized with quantified expression level of tubulin in FIG. 16.

The next test deals with IGFIR. Briefly: Western blotting of liver protein extract: IGFIR. The conditions noted are these: high-fat diet mice, groups 3~5 (5, 15, 25 mg/kg/day i.p.), normalized with tubulin, compared with group 2. As to the method: as §1, §2, §3
Another test has as its system mouse liver. The test is described as follows: Histopathological examination (H&E) of mouse liver, high-fat diet fed mice. The conditions noted are these: high-fat diet mice, 5, 15 or 25 mg/kg/day intra-peritoneal (groups 3~5). As to the method: The experiments using the experimental mice were conducted according to the IACUC-100-12 protocol approved by Academia Sinica Institutional Animal Care and Utilization Committee (IACUC) ethics committee. All C57BL/6 male mice (6-weeks-old) were randomly divided into 5 groups that contain 8 mice in each. These mice were individually housed in a room temperature at 24±2° C. and 55±10% humidity with 12 hours of light cycle. Herein, the control mice in the group 1 were fed with standard laboratory diet and administrated 0.9% normal saline by intra-peritoneal injection. In the group 2, the mice were fed with high-fat diet to induce the fatty liver, and administrated 0.9% normal saline by intra-peritoneal injection. In the group 3, the mice were fed with high-fat diet and administrated with peptide of SEQ ID No.1 by intra-peritoneal injected with the dose of 5 mg/kg/day. In the group 4, the mice were fed with high-fat diet and administrated with peptide of SEQ ID No.1 by intra-peritoneal injected with the dose of 15 mg/kg/day. In the group 5, the mice were fed with high-fat diet and administrated with peptide of SEQ ID No.1 by intra-peritoneal injected with the dose of 25 mg/kg/day. The inter-peritoneal injections were performed on these mice between third to sixth weeks of culture.
The livers were excised from the mice of the each group; soaked in formalin; dehydrated by passing consecutively through […] and then embedded in paraffin wax. The each embedded liver tissue block was cut into […] sections and deparaffinization by soaking in xylene. The histological section of the mouse liver in the each group was consecutively stained by hematoxylin and eosin (H&E) and rinsed with water. The photomicrographs of the histological section of the mouse liver in the each group obtained using Zeiss Axiophot microscope (Thornwood Co, USA.) were shown in FIG. 3 and FIG. 4.

A further test concerns Bcl-2. Briefly: Western blotting of liver protein extract: Bcl-2. The conditions noted are these: high-fat diet mice, groups 3~5 (5, 15, 25 mg/kg/day i.p.), normalized with tubulin, compared with group 2. As to the method: as §1, §2, §3
In another test the test system is Caspase-8. The test is described as follows: Western blotting of liver protein extract: Caspase-8. The following applies: high-fat diet mice, groups 3~5 (5, 15, 25 mg/kg/day i.p.), normalized with tubulin, compared with group 2. As to the method:
as §1, §2, §3

For the next test, the system named is IL-6. The test is described as follows: Western blotting of liver protein extract: IL-6. The conditions noted are these: high-fat diet mice, groups 3~5 (5, 15, 25 mg/kg/day i.p.), normalized with tubulin, compared to group 2. As to the method: as §1, with “injection. In the group 2, the mice were fed with high-fat diet to induce the fatty liver, and administrated 0.9% normal saline by intra-peritoneal injection.” for “injection.”
as §2, §4

For “peptide of SEQ ID No.1: isolated peptide containing an amino acid sequence of SEQ ID No.1; obtainable by extraction, hydrolyzation or chemical synthesis (VHVV)”, the “expression level of Bax (pro-apoptotic factor) in mouse liver” value in the test with Bax is “obviously suppressed”. In addition, the “expression level of cytochrome c (pro-apoptotic factor) in mouse liver” value with cytochrome c is “obviously suppressed”. Moreover, the “expression level of survival related protein AKT (pAKT) in mouse liver” value in the test with AKT is on record as “obviously higher”. Besides, in test [1], the “concentration of LDL in blood plasma” value is given as “obviously decreased” and the “concentration of triglyceride in blood plasma” value is given as “obviously decreased”. Besides, the “expression level of MMP-9 in mouse liver” value in test [2] is recorded as “obviously suppressed”. In addition, the “expression level of survival related protein PI3K in mouse liver” value in the test with PI3K is “obviously higher”. The “expression level of TNFα in mouse liver” value in the test on TNFα was “obviously reduced”. The “expression level of Caspase-9 (pro-apoptotic factor) in mouse liver” value in the test with Caspase-9 is listed as “obviously suppressed”. Further, the “expression level of Caspase-3 (pro-apoptotic factor) in mouse liver” value in the test on Caspase-3 is listed as “obviously suppressed”. In the test with PPARα, the “expression level of PPARα in mouse liver” value is reported as “obviously increased”. In addition, in the test with IGFIR, the “expression level of survival related protein IGFIR (pIGF-IR) in mouse liver” value is “obviously higher”. The “fat accumulation in the mouse liver (H&E)” value in the test on mouse liver (compared with group 2) was “obviously decreased”. Further, the “giant oil drops in the mouse liver (H&E)” value in the test on mouse liver (group 2 filled with giant oil drops) is “never was observed the giant oil drop”. For the same substance, the “arrangement of hepatocytes in the mouse liver (H&E)” value in the test with mouse liver (group 2 loosely arranged) is listed as “tightly arranged hepatocytes”. In the test on Bcl-2, the “expression level of Bcl-2 in mouse liver” value is “elevated”. In addition, the “expression level of Caspase-8 (pro-apoptotic factor) in mouse liver” value in the test on Caspase-8 is reported as “obviously suppressed”. Moreover, in the test with IL-6, the “expression level of IL-6 in mouse liver” value is “obviously reduced”.
